# Test results taken from US7875647B2, “Heteroaryl-pyrazole derivatives as cannabinoid CB1 receptor antagonists” (Green Cross Corporation, priority 2006, dated 2011).
# Target: T1, Cannabinoid-1 receptor (CB1R) (Rattus norvegicus, UniProt P20272)
# T1 construct: The tissue obtained from the brain of SD rats was homogenized; from tissue; host or cells: brain of SD rats (membrane pellet of the homogenate)
# Experiment: Cannabinoid-1 receptor (CB1R) binding affinity assay ([3H]CP-55940, rat CB-1 receptor binding protocol)
# Details: IC50(nM), brain tissue of SD rats, [3H]CP-55940, 30° C. 60 min
# T1 sequence (P20272 whole entry): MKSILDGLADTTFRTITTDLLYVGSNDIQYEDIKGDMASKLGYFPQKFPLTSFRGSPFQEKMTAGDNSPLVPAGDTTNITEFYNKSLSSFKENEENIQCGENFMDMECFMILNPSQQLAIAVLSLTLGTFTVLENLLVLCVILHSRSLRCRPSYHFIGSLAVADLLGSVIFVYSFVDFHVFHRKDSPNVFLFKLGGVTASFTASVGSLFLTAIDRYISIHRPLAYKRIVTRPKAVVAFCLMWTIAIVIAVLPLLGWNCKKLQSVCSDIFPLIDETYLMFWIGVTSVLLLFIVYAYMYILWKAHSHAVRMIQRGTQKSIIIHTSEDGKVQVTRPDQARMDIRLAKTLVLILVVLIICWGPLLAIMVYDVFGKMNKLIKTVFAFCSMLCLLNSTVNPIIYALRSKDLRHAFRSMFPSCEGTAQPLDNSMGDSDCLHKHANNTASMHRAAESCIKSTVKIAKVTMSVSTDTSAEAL
row,SMILES,IC50 [nM]
1,"CCc1c(-c2nnc(C3(c4cccc(Cl)c4)CC3)o2)nn(-c2ccc(Cl)cc2Cl)c1-c1ccc(Br)cc1 [Example 273, 2-(5-(4-bromophenyl)-1-(2,4-dichlorophenyl)-4-ethyl-1H-pyrazol-3-yl)-5-(1-(3-chlorophenyl)cyclopropyl)-1,3,4-oxadiazole]",2.32

# Same assay, conditions: brain tissue of SD rats, [3H]CP-55940, 30° C. 60 min; read-out: IC50
row,IC50 [nM],SMILES
1,38.4,"CC(C)(C)c1nnc(-c2nn(-c3ccc(Cl)cc3Cl)c(-c3ccc(Cl)cc3)c2Cn2cccc2)o1 [Example 299, 2-(4-((1H-pyrrol-1-yl)methyl)-5-(4-chlorophenyl)-1-(2,4-dichlorophenyl)-1H-pyrazol-3-yl)-5-tert-butyl-1,3,4-oxadiazole]"
2,2.29,"FC(F)(F)C1(c2nnc(-c3nn(-c4ccc(Cl)cc4Cl)c(-c4ccc(Cl)cc4)c3Cn3cncn3)s2)CC1 [Example 511, 2-(4-((1H-1,2,4-triazol-1-yl)methyl)-5-(4-chlorophenyl)-1-(2,4-dichlorophenyl)-1H-pyrazol-3-yl)-5-(1-(trifluoromethyl)cyclopropyl)-1,3,4-thiadiazole]"
3,11.4,"CC(C)c1c(-c2nnc(C3(C(F)(F)F)CC3)s2)nn(-c2ccc(Cl)cc2Cl)c1-c1ccc(Cl)cc1 [Example 498, 2-(5-(4-chlorophenyl)-1-(2,4-dichlorophenyl)-4-isopropyl-1H-pyrazol-3-yl)-5-(1-(trifluoromethyl)cyclopropyl)-1,3,4-thiadiazole]"
4,18,"Clc1ccc(-c2c(C3CC3)c(-c3nnc(C4CCC4)s3)nn2-c2ccc(Cl)cc2Cl)cc1 [Example 442, 2-(5-(4-chlorophenyl)-4-cyclopropyl-1-(2,4-dichlorophenyl)-1H-pyrazol-3-yl)-5-cyclobutyl-1,3,4-thiadiazole]"
5,9.6,"Cc1c(-c2nnc(C3(c4ccccc4)CC3)s2)nn(-c2ccc(Cl)cc2Cl)c1-c1ccc(Cl)cc1 [Example 487, 2-(5-(4-chlorophenyl)-1-(2,4-dichlorophenyl)-4-methyl-1H-pyrazol-3-yl)-5-(1-phenylcyclopropyl)-1,3,4-thiadiazole]"
6,22.6,"CC(C)(C)c1nnc(-c2nn(-c3ccc(Cl)cc3Cl)c(-c3ccc(Cl)cc3)c2C(C)(C)O)o1 [Example 217, 2-(3-(5-tert-butyl-1,3,4-oxadiazol-2-yl)-5-(4-chlorophenyl)-1-(2,4-dichlorophenyl)-1H-pyrazol-4-yl)propan-2-ol]"
7,12.8,"COC(c1ccccc1)(c1nnc(-c2nn(-c3ccc(Cl)cc3Cl)c(-c3ccc(Cl)cc3)c2C)o1)C(F)(F)F (centres unmarked) [Example 251, 2-(5-(4-chlorophenyl)-1-(2,4-dichlorophenyl)-4-methyl-1H-pyrazol-3-yl)-5-(2,2,2-trifluoro-1-methoxy-1-phenylethyl)-1,3,4-oxadiazole]"
8,30.4,"CC(C)(C)c1nnc(-c2nn(-c3ccc(Cl)cc3Cl)c(-c3ccc(Cl)cc3)c2Br)o1 [Example 338, 2-(4-bromo-5-(4-chlorophenyl)-1-(2,4-dichlorophenyl)-1H-pyrazol-3-yl)-5-tert-butyl-1,3,4-oxadiazole]"
9,48.9,"Cc1c(-c2nnc(C3(c4ccc(F)cc4)CC3)s2)nn(-c2ccc(Cl)cc2Cl)c1-c1ccc(Cl)cc1 [Example 496, 2-(5-(4-chlorophenyl)-1-(2,4-dichlorophenyl)-4-methyl-1H-pyrazol-3-yl)-5-(1-(4-fluorophenyl)cyclopropyl)-1,3,4-thiadiazole]"
10,62.1,"COC(C)(C)c1nnc(-c2nn(-c3ccc(Cl)cc3Cl)c(-c3ccc(Cl)cc3)c2C)s1 [Example 419, 2-(5-(4-chlorophenyl)-1-(2,4-dichlorophenyl)-4-methyl-1H-pyrazol-3-yl)-5-(2-methoxypropan-2-yl)-1,3,4-thiadiazole]"
11,112,"CCC(C)(C)c1nnc(-c2nn(-c3ccc(Cl)cc3Cl)c(-c3ccccc3)c2C)s1 [Example 420, 2-(1-(2,4-dichlorophenyl)-4-methyl-5-phenyl-1H-pyrazol-3-yl)-5-tert-pentyl-1,3,4-thiadiazole]"
12,277,"CCC(C)c1nnc(-c2nn(-c3ccc(Cl)cc3Cl)c(-c3cccc(Cl)c3)c2C)s1 (centres unmarked) [Example 435, 2-sec-butyl-5-(5-(3-chlorophenyl)-1-(2,4-dichlorophenyl)-4-methyl-1H-pyrazol-3-yl)-1,3,4-thiadiazole]"
13,42,"CCCOC(C)(C)c1nnc(-c2nn(-c3ccc(Cl)cc3Cl)c(-c3ccc(Cl)cc3)c2C)o1 [Example 235, 2-(5-(4-chlorophenyl)-1-(2,4-dichlorophenyl)-4-methyl-1H-pyrazol-3-yl)-5-(2-propoxypropan-2-yl)-1,3,4-oxadiazole]"
14,5.15,"CCc1c(-c2nnc(C(C)(C)c3ccccc3)s2)nn(-c2ccc(Cl)cc2Cl)c1-c1ccc(Br)cc1 [Example 404, 2-(5-(4-bromophenyl)-1-(2,4-dichlorophenyl)-4-ethyl-1H-pyrazol-3-yl)-5-(2-phenylpropan-2-yl)-1,3,4-thiadiazole]"
15,2.26,"CC(C)(C)c1nnc(-c2nn(-c3ccccc3Cl)c(-c3ccc(Cl)cc3)c2Cn2cncn2)o1 [Example 325, 2-(4-((1H-1,2,4-triazol-1-yl)methyl)-1-(2-chlorophenyl)-5-(4-chlorophenyl)-1H-pyrazol-3-yl)-5-tert-butyl-1,3,4-oxadiazole]"
16,6.05,"CCc1c(-c2nnc(C3(c4ccccc4)CC3)o2)nn(-c2ccc(Cl)cc2Cl)c1-c1ccc(Cl)cc1 [Example 150, 2-(5-(4-chlorophenyl)-1-(2,4-dichlorophenyl)-4-ethyl-1H-pyrazol-3-yl)-5-(1-phenylcyclopropyl)-1,3,4-oxadiazole]"
17,15.6,"COC(=O)NCc1c(-c2nnc(C(C)(C)C)o2)nn(-c2ccc(Cl)cc2Cl)c1-c1ccc(Cl)cc1 [Example 232, Methyl (3-(5-tert-butyl-1,3,4-oxadiazol-2-yl)-5-(4-chlorophenyl)-1-(2,4-dichlorophenyl)-1H-pyrazol-4-yl)methylcarbamate]"
18,17.1,"CC(C)(C)c1nnc(-c2nn(-c3ccc(Cl)cc3Cl)c(-c3ccc(Br)cc3)c2C(C)(C)O)o1 [Example 218, 2-(5-(4-bromophenyl)-3-(5-tert-butyl-1,3,4-oxadiazol-2-yl)-1-(2,4-dichlorophenyl)-1H-pyrazol-4-yl)propan-2-ol]"
19,49.4,"CC(=O)c1c(-c2nnc(C(C)(C)C)o2)nn(-c2ccc(Cl)cc2Cl)c1-c1ccc(Cl)cc1 [Example 213, 1-(3-(5-tert-butyl-1,3,4-oxadiazol-2-yl)-5-(4-chlorophenyl)-1-(2,4-dichlorophenyl)-1H-pyrazol-4-yl)ethanone]"
20,7.63,"CCc1c(-c2nnc(C(C)CC)s2)nn(-c2ccc(Cl)cc2Cl)c1-c1ccc(Br)cc1 (centres unmarked) [Example 399, 2-(5-(4-bromophenyl)-1-(2,4-dichlorophenyl)-4-ethyl-1H-pyrazol-3-yl)-5-sec-butyl-1,3,4-thiadiazole]"
21,4.61,"CC(C)(C)c1nnc(-c2nn(-c3ccc(Cl)cc3Cl)c(-c3ccc(Br)cc3)c2CO)s1 [Example 522, (5-(4-bromophenyl)-3-(5-tert-butyl-1,3,4-thiadiazol-2-yl)-1-(2,4-dichlorophenyl)-1H-pyrazol-4-yl)methanol]"
22,45.7,"CC(C)(C)c1nnc(-c2nn(-c3ccc(Cl)cc3Cl)c(-c3ccc(Cl)cc3)c2CN2CCCCC2)o1 [Example 291, 2-tert-butyl-5-(5-(4-chlorophenyl)-1-(2,4-dichlorophenyl)-4-(piperidin-1-ylmethyl)-1H-pyrazol-3-yl)-1,3,4-oxadiazole]"
23,41.9,"Cc1c(-c2nnc(C3(c4ccc(Cl)cc4)CC3)o2)nn(-c2cc(Cl)ccc2Cl)c1-c1ccc(Cl)cc1 [Example 167, 2-(5-(4-chlorophenyl)-1-(2,5-dichlorophenyl)-4-methyl-1H-pyrazol-3-yl)-5-(1-(4-chlorophenyl)cyclopropyl)-1,3,4-oxadiazole]"
24,17.1,"CCc1c(-c2nnc(C3(CC)CC3)o2)nn(-c2ccc(Cl)cc2Cl)c1-c1ccc(Cl)cc1 [Example 278, 2-(5-(4-chlorophenyl)-1-(2,4-dichlorophenyl)-4-ethyl-1H-pyrazol-3-yl)-5-(1-ethylcyclopropyl)-1,3,4-oxadiazole]"
25,200,"Cc1c(-c2nnc(C3(c4ccc(Cl)cc4)CCC3)o2)nn(-c2cc(Cl)ccc2Cl)c1-c1ccc(Cl)cc1 [Example 168, 2-(5-(4-chlorophenyl)-1-(2,5-dichlorophenyl)-4-methyl-1H-pyrazol-3-yl)-5-(1-(4-chlorophenyl)cyclobutyl)-1,3,4-oxadiazole]"
26,181,"Cc1c(-c2nnnn2C2CC2)nn(-c2ccc(Cl)cc2Cl)c1-c1ccc(Cl)cc1 [Example 599, 5-(5-(4-Chlorophenyl)-1-(2,4-dichlorophenyl)-4-methyl-1H-pyrazol-3-yl)-1-cyclopropyl-1H-tetrazole]"
27,52.6,"Cc1c(-c2nnc(C3(c4ccc(Cl)cc4)CC3)o2)nn(-c2c(Cl)cccc2Cl)c1-c1ccc(Cl)cc1 [Example 161, 2-(5-(4-chlorophenyl)-1-(2,6-dichlorophenyl)-4-methyl-1H-pyrazol-3-yl)-5-(1-(4-chlorophenyl)cyclopropyl)-1,3,4-oxadiazole]"
28,7.42,"CCc1c(-c2nnc(C3(c4ccc(Cl)cc4)CCC3)o2)nn(-c2ccc(Cl)cc2Cl)c1-c1ccc(Cl)cc1 [Example 154, 2-(5-(4-chlorophenyl)-1-(2,4-dichlorophenyl)-4-ethyl-1H-pyrazol-3-yl)-5-(1-(4-chlorophenyl)cyclobutyl)-1,3,4-oxadiazole]"
29,51.9,"CCC(C)c1nnc(-c2nn(-c3ccc(Cl)cc3Cl)c(-c3ccc(Cl)cc3)c2Br)s1 (centres unmarked) [Example 542, 2-(4-bromo-5-(4-chlorophenyl)-1-(2,4-dichlorophenyl)-1H-pyrazol-3-yl)-5-sec-butyl-1,3,4-thiadiazole]"
30,91.2,"Clc1ccc(-c2c(Br)c(-c3nnc(C4CCCCC4)s3)nn2-c2ccc(Cl)cc2Cl)cc1 [Example 544, 2-(4-bromo-5-(4-chlorophenyl)-1-(2,4-dichlorophenyl)-1H-pyrazol-3-yl)-5-cyclohexyl-1,3,4-thiadiazole]"

row,SMILES,IC50 [nM]
1,"Cc1c(-c2nnnn2C2CCCC2)nn(-c2ccc(Cl)cc2Cl)c1-c1ccc(Cl)cc1 [Example 577, 5-(5-(4-Chlorophenyl)-1-(2,4-dichlorophenyl)-4-methyl-1H-pyrazol-3-yl)-1-cyclopentyl-1H-tetrazole]",26.5
